# Source: patent US10478437B2, “Combination therapy to enhance the anticancer efficacy of platinum drugs” (University of Pittsburgh-of the Commonwealth System of …, priority 2014, dated 2019)
# “Also recorded” adds a separate entry of the source.
# Key:
# Assay type in all cases: cell-based, human
# [1] = tested on: cisplatin-resistant ovarian cancer cell line A2780cis; assay: Caspase-3/7 activity assay (apoptotic cell death), compound alone or with cisplatin; settings: for activation of Caspase-3/7 in combination with cisplatin compared to mdivi-1: FIG. 7A and Table 6; for activation of Caspase-3/7 in combination with cisplatin compared to mdivi-1 / activity in the screen (Caspase-3/7 activity and microscopic examination), active / inactive / Caspase-3/7 activity upon combination with cisplatin compared to cisplatin alone or compound alone: in words; for caspase-3/7 activity (Lum), compound with cisplatin: compound 20 μM with 20 μM cisplatin; for caspase-3/7 activity (Lum), compound with cisplatin / caspase-3/7 activity (Lum), compound alone / caspase-3/7 activity (Lum) with compound and cisplatin (20 μM) / caspase-3/7 activity (Lum) with compound alone: 20 h; for caspase-3/7 activity (Lum) with compound and cisplatin (20 μM) / caspase-3/7 activity (Lum) with compound alone: Table 6; for caspase-3/7 activity (Lum) with compound alone: untreated cells 9 ± 1; for activity in the screen (Caspase-3/7 activity and microscopic examination), active / inactive: alone or in the presence of cisplatin
# Protocol: Cell proliferation was determined using a CyQUANT Direct Cell Proliferation Assay kit (Invitrogen), the activity of caspase-3/7 was measured using a Caspase-Glo 3/7 Assay Systems (Promega, Madison, Wis.), and the MTS calorimetric survival assay was performed using the CellTiter 96 AQueous One Solution Cell Proliferation Assay kit (Promega, Madison, Wis.), according to the manufacturer's instructions. The survival fractions were calculated after setting untreated control cells at 100%. The data were plotted and curve fitted using GraphPad Prism software. To quantify the number of cells with active caspase-3, cells were fixed with 4% paraformaldehyde (Electron microscopy sciences, Hatfield, Pa.), stained with Alexa Fluor-488 conjugated antibody against cleaved caspase-3 (Asp175) (Cell Signaling Technology, Danvers, Mass.) followed by flow cytometry. An FITC Annexin V Apoptosis Detection Kit (BD PharMingen, San Diego, Calif.) was used to quantify apoptotic cells, according to the manufacturer's instructions.
# A Caspase-3/7 assay was performed to evaluate the activity of the 36 compounds of FIG. 1 in vitro in the cisplatin-resistant ovarian cancer cell line, A2780cis, alone or in the presence of cisplatin. A microscopic examination of apoptotic morphologic changes was also carried out right before the measurement of Caspase-3/7 activity, in order to confirm that the data on the activation of the Caspase-3/7 following treatment is consistent with morphological change and reflects cell death.
# [2] = tested on: cisplatin-resistant ovarian cancer cell line A2780cis; assay: CellTiter-Blue cell viability assay, compound alone or with cisplatin or carboplatin, 24 h; settings: for cell viability after combination with carboplatin compared to carboplatin alone / viability at 10 µM / viability at 20 µM / viability at 50 µM / Survival (%) of cells with compound and carboplatin (200 μM) / survival (%) of cells with compound and cisplatin (20 μM): 24 h; for cell viability after combination with carboplatin compared to carboplatin alone: FIG. 6; for viability at 10 µM / viability at 20 µM / viability at 50 µM: Homo sapiens, A2780cis, untreated cells = 100%, read-out: survival (%) of cells with compound alone; for viability at 10 µM: compound 10 μM; for viability at 20 µM: compound 20 μM; for viability at 50 µM: compound 50 μM
# Protocol: Data were expressed as mean±standard deviation. A Student's t test was used for the comparisons between the treatment with the combination of analogs with cisplatin and with analogs alone. P<0.05 was considered statistically significant. Combination index was calculated using CompuSyn software. A value of 0.3-0.7 for the combination index indicates synergism, 0.1-0.3 indicates strong synergism, and <0.1 indicates very strong synergism (Chou, 2006).
# To further validate the activity of the identified 11 active compounds (see FIG. 3), a CellTiter-Blue cell viability assay was performed with increasing concentrations (10 μM, 20 μM and 50 μM) of the disclosed compounds (see FIG. 4 and Table 5). Cisplatin resistant ovarian cancer cells (A2780cis) were treated with a disclosed compound alone, cisplatin alone or a combination of a compound with cisplatin for 24 h to determine the effects of the compounds on cell viability.
# Analysis of the effect of the disclosed compounds with another platinum-containing compound, carboplatin, was performed. A2780cis cells were treated with carboplatin alone or with the combination of carboplatin and the disclosed compounds at indicated concentrations for 24 h followed by the analysis of cell viability.
# [3] = tested on: A2780cis cells; assay: Western blot of caspase/PARP cleavage, Noxa induction, RPA32 and H2AX phosphorylation; settings: compound 20 μM + cisplatin 20 μM, 20 h, FIG. 7B; in words
# Protocol: Whole cell lysate was prepared by lysing cells in cell lysis buffer (Cell signaling technology) containing complete protease inhibitor (Roche). Cell lysates were then cleared at 15,000 rpm for 15 min at 4° C. The protein content was quantified using a Bio-Rad Protein Assay kit (Bio-Rad Laboratories, Hercules, Calif.). The equal amount of protein was separated on Tris-glycine gels (Invitrogen). The separated proteins were blotted onto a polyvinylidene difluoride membrane and blocked overnight at 4° C. in phosphate-buffered saline containing 0.1% Tween 20 and 10% nonfat dry milk (blocking buffer). Membranes were incubated with primary antibodies in blocking buffer overnight at 4° C. Primary antibodies used were: β-actin from Sigma; Bax, Bak, Caspase-9 and cleaved Caspase-3 from Cell Signaling Technology; phospho-Histone H2AX (Ser 139) and Noxa from Millipore. Membranes were then washed and incubated in peroxidase conjugated anti-rabbit IgG (Sigma) or anti-mouse IgG (Sigma) secondary antibody for 1 h at room temperature. Membranes were developed using SuperSignal West Femto Maximum Sensitivity Substrate (Thermo Fisher Scientific).
# A2780cis cells were treated with cisplatin alone, compounds alone or in combination with cisplatin at indicated concentrations for 20 h to analyze apoptotic cell death in response to treatment. […] Expression and cleavage of several major caspases (Caspase-8, Caspase-9 and Caspase-3), as well as poly(ADP-ribose) polymerase (PARP) and NOXA. A2780cis cells were treated with cisplatin (20 μM) alone, compounds (20 μM) alone or in combination with cisplatin for 20 h.
# To determine the effects of the compounds on DNA damage and mitochondrial dysfunction, A2780cis cells were treated with cisplatin (20 μM) alone or the combination of cisplatin with 20 μM of compound 1-6. Replication protein A (RPA) is a single strand-specific DNA-binding protein, consisting of three subunits, RPA70, RPA32, and RPA14. RPA32 is phosphorylated in response to DNA replication stress. Western blot analysis was performed to evaluate the phosphorylation of RPA32 and histone H2AX, the induction of Noxa expression and cleavage of caspase-3. […] A2780cis cells were treated with cisplatin (50 μM) alone, 1-6 (50 μM) alone or the combination of cisplatin and compound 1-6 for 4 h. The oxygen consumption rate (OCR) was measured by a Seahorse extracellular flux analyzer.
# [4] = Table 1, compound 20 μM, mean ± S.D. of triplicates
# [5] = compound 5 μM + cisplatin 20 μM
# [6] = compound 10 μM + cisplatin 20 μM
# [7] = compound 20 μM + cisplatin 20 μM
# [8] = compound 10 μM + carboplatin 200 μM
# [9] = compound 20 μM + carboplatin 200 μM
# [10] = compound 50 μM + carboplatin 200 μM
# [11] = compound 50 μM + cisplatin 20 μM
structure (smiles),measurement,setting,value
CCCn1c(=S)[nH]c2cc(OC)c(OC)cc2c1=O [Compound 1-8],activation of Caspase-3/7 in combination with cisplatin compared to mdivi-1,[1],more effective; also recorded: more potent than mdivi-1
same,"caspase-3/7 activity (Lum), compound with cisplatin",[1]; Table 1,121 ± 4 Lum
same,"caspase-3/7 activity (Lum), compound alone",[1]; [4],14 ± 2 Lum
same,"caspase-3/7 activity (Lum), compound alone","[1]; Table 2, compound 20 μM",14 ± 2 Lum
same,caspase-3/7 activity (Lum) with compound and cisplatin (20 μM),[1]; [5],38 ± 4 Lum
same,caspase-3/7 activity (Lum) with compound alone,[1]; compound 5 μM,10 ± 1 Lum
same,caspase-3/7 activity (Lum) with compound and cisplatin (20 μM),[1]; [6],72 ± 1 Lum
same,caspase-3/7 activity (Lum) with compound alone,[1]; compound 10 μM,10 ± 1 Lum
same,caspase-3/7 activity (Lum) with compound and cisplatin (20 μM),[1]; [7],93 ± 4 Lum
same,caspase-3/7 activity (Lum) with compound alone,[1]; compound 20 μM,11 ± 1 Lum
same,"activity in the screen (Caspase-3/7 activity and microscopic examination), active / inactive",[1],active
same,Caspase-3/7 activity upon combination with cisplatin compared to cisplatin alone or compound alone,[1],increase in Caspase-3/7 activity
same,cell viability after combination with carboplatin compared to carboplatin alone,[2]; in words,cell viability was reduced
same,viability at 10 µM,[2],99.6 ± 2.9%
same,viability at 20 µM,[2],96.3 ± 3.2%
same,viability at 50 µM,[2],88.4 ± 2.1%
same,Survival (%) of cells with compound and carboplatin (200 μM),[2]; [8],89.5 + 2.1%
same,survival (%) of cells with compound and cisplatin (20 μM),[2]; [6],53.4 ± 1.5%
same,potency at enhancing the cytotoxicity of cisplatin compared to mdivi-1,"[2]; compound 10 μM with cisplatin, FIG. 4, in words",more potent than mdivi-1
same,Survival (%) of cells with compound and carboplatin (200 μM),[2]; [9],65.8 ± 3.5%
same,survival (%) of cells with compound and cisplatin (20 μM),[2]; [7],25.9 ± 2.3%
same,Survival (%) of cells with compound and carboplatin (200 μM),[2]; [10],42.5 ± 2.3%
same,survival (%) of cells with compound and cisplatin (20 μM),[2]; [11],17.9 ± 1.3%
same,"cleavage of caspases and PARP, induction of Noxa in combination with cisplatin",[3],"cleavage of Caspase-8, 9, 3, PARP and the induction of Noxa"
Cc1ccc(-n2c(=S)[nH]c3ccccc3c2=O)cc1F [Compound 1-17],activation of Caspase-3/7 in combination with cisplatin compared to mdivi-1,[1],more effective; also recorded: more potent than mdivi-1
same,"caspase-3/7 activity (Lum), compound with cisplatin",[1]; Table 1,123 ± 5 Lum
same,"caspase-3/7 activity (Lum), compound alone",[1]; [4],10 ± 2 Lum
same,"caspase-3/7 activity (Lum), compound alone","[1]; Table 2, compound 20 μM",10 ± 2 Lum
same,caspase-3/7 activity (Lum) with compound and cisplatin (20 μM),[1]; [5],34 ± 3 Lum
same,caspase-3/7 activity (Lum) with compound alone,[1]; compound 5 μM,15 ± 8 Lum
same,caspase-3/7 activity (Lum) with compound and cisplatin (20 μM),[1]; [6],76 ± 7 Lum
same,caspase-3/7 activity (Lum) with compound alone,[1]; compound 10 μM,10 ± 1 Lum
same,caspase-3/7 activity (Lum) with compound and cisplatin (20 μM),[1]; [7],101 ± 6 Lum
same,caspase-3/7 activity (Lum) with compound alone,[1]; compound 20 μM,10 ± 1 Lum
same,"activity in the screen (Caspase-3/7 activity and microscopic examination), active / inactive",[1],active
same,Caspase-3/7 activity upon combination with cisplatin compared to cisplatin alone or compound alone,[1],increase in Caspase-3/7 activity
same,cell viability after combination with carboplatin compared to carboplatin alone,[2]; in words,cell viability was reduced
same,viability at 10 µM,[2],101 ± 2.9%
same,viability at 20 µM,[2],101 ± 2.1%
same,viability at 50 µM,[2],101 ± 1.4%
same,Survival (%) of cells with compound and carboplatin (200 μM),[2]; [8],90.7 ± 0.9%
same,survival (%) of cells with compound and cisplatin (20 μM),[2]; [6],63.0 ± 1.1%
same,Survival (%) of cells with compound and carboplatin (200 μM),[2]; [9],79.3 ± 3.9%
same,survival (%) of cells with compound and cisplatin (20 μM),[2]; [7],39.6 ± 3.0%
same,Survival (%) of cells with compound and carboplatin (200 μM),[2]; [10],69.7 ± 4.1%
same,survival (%) of cells with compound and cisplatin (20 μM),[2]; [11],26.7 ± 1.4%
same,"cleavage of caspases and PARP, induction of Noxa in combination with cisplatin",[3],"cleavage of Caspase-8, 9, 3, PARP and the induction of Noxa"
CCc1ccccc1-n1c(=S)[nH]c2ccccc2c1=O [Compound 1-19],activation of Caspase-3/7 in combination with cisplatin compared to mdivi-1,[1],more effective; also recorded: more potent than mdivi-1
same,"caspase-3/7 activity (Lum), compound with cisplatin",[1]; Table 1,136 ± 12 Lum
same,"caspase-3/7 activity (Lum), compound alone",[1]; [4],12 ± 1 Lum
same,"caspase-3/7 activity (Lum), compound alone","[1]; Table 2, compound 20 μM",12 ± 1 Lum
same,caspase-3/7 activity (Lum) with compound and cisplatin (20 μM),[1]; [5],36 ± 3 Lum
same,caspase-3/7 activity (Lum) with compound alone,[1]; compound 5 μM,9 ± 2 Lum
same,caspase-3/7 activity (Lum) with compound and cisplatin (20 μM),[1]; [6],114 ± 5 Lum
same,caspase-3/7 activity (Lum) with compound alone,[1]; compound 10 μM,8 ± 1 Lum
same,caspase-3/7 activity (Lum) with compound and cisplatin (20 μM),[1]; [7],96 ± 11 Lum
same,caspase-3/7 activity (Lum) with compound alone,[1]; compound 20 μM,9 ± 1 Lum
same,"activity in the screen (Caspase-3/7 activity and microscopic examination), active / inactive",[1],active
same,Caspase-3/7 activity upon combination with cisplatin compared to cisplatin alone or compound alone,[1],increase in Caspase-3/7 activity
same,cell viability after combination with carboplatin compared to carboplatin alone,[2]; in words,cell viability was reduced
same,viability at 10 µM,[2],103 ± 1.2%
same,viability at 20 µM,[2],99.6 ± 3%
same,viability at 50 µM,[2],98.5 ± 1.7%
same,Survival (%) of cells with compound and carboplatin (200 μM),[2]; [8],103.5 ± 1.6%
same,survival (%) of cells with compound and cisplatin (20 μM),[2]; [6],47.9 ± 4.8%
same,Survival (%) of cells with compound and carboplatin (200 μM),[2]; [9],70.0 ± 2.9%
same,survival (%) of cells with compound and cisplatin (20 μM),[2]; [7],25.3 ± 1.0%
same,Survival (%) of cells with compound and carboplatin (200 μM),[2]; [10],31.6 ± 4.2%
same,survival (%) of cells with compound and cisplatin (20 μM),[2]; [11],4.9 ± 1.4%
same,"cleavage of caspases and PARP, induction of Noxa in combination with cisplatin",[3],"cleavage of Caspase-8, 9, 3, PARP and the induction of Noxa"
